Data as given in patent publication EP3733658B1, “PRENYLATED BENZOPYRANES AS PPAR AGONISTS” (Universitat de València, priority 2017, dated 2019).

Experiments:
[1] = tested on: human umbilical vein endothelial cells (HUVEC); experiment: MTT colorimetric cell viability assay, HUVEC; assay type: cell-based; settings: 30 µM, 24 h
Description: To evaluate potential adverse effects (cytotoxicity) of the compounds of the invention, the compounds 1 and 2 for use according to the present invention, compound 8 of the invention, and the reference compounds were evaluated at concentrations of 30 and 100 µM in human neutrophils (Fig. 1A) and primary cultures of human umbilical vein endothelial cells (HUVEC) (Fig. 1B) using two different techniques: MTT colorimetry assay and flow cytometry analysis for cellular apoptosis and survival. In addition, the synthetic compound 9 of the invention was evaluated at 10, 30 and 100 µM (Fig. 2).
MTT assay. The viability of neutrophils and HUVEC was determined by the MTT colorimetric assay MTT (3(4,5-dimethylthiazol-2-yl)-2,5-diphenyltetrazoyl bromide).
Human umbilical vein endothelial cells (HUVEC) were isolated with the collagenase treatment and maintained in a human specific endothelial base medium (EBM-2) supplemented with endothelial growth medium (EGM-2) and 10% FCS. Cells of the first passage were cultured until their confluence in 24-well plates. Before starting each experiment, the cells were incubated for 24 h in a medium containing 1% FBS.
100 µL of neutrophils and HUVEC (2 × 10^5 cells/mL) suspension in supplemented RPMI medium were added to each well of a 96-well plate. The cells were incubated in absence and/or presence of the compounds at 37°C for24h. An MTT solution was prepared (2 mg/mL in PBS). 100 µL of the MTT solution were added to each well and incubated at 37°C for an additional 3 h. The supernatants were discarded and 200 µL of DMSO were added to each well to dissolve the precipitated formazan. The optical densities at two wavelengths (560 and 630 nm) were measured in a spectrophotometer (Infinite M200, Tecan, Mannedorf, Switzerland).

[2] = Treatment of ob/ob mice: plasma metabolites (cholesterol, HDL-c, triglycerides, free fatty acids, ALT, AST); assay type: in vivo; set-up: blood levels of free fatty acids: unit not given here; settings: oral, 4 days; for triglyceride levels in plasma: control 137 mg/dL
Description: […]. […] […].
Free fatty acids (FFA) in plasma, and the enzymes aspartate aminotransferase (AST) and alanine aminotransferase (ALT) were determined with a colorimetric assay kit (Sigma-Aldrich, Madrid, Spain). In addition the plasma lipid levels for total cholesterol and triglycerides (TG) were measured by enzymatic methods (WAKO, Cape Charles, VA). The concentration of HDLcholesterol (HDL-c) was also determined with the same method used to measure total cholesterol, after precipitating the apolipoprotein-B (apoB) with dextran sulphate/MgCl2 (Sigma-Aldrich, Madrid, Spain) as previously described (Zieske et al., 2005).

HUVEC = experiment: Annexin V / propidium iodide flow cytometry of apoptosis and survival, HUVEC; assay type: cell-based, human; settings: tested concentrations including 100 µM, compared with the vehicle
Description: In addition, the apoptosis and survival rate for human neutrophils and HUVEC was determined by double staining with annexin V and propidium iodide (PI) by flow cytometry.
Cytofluorometric analysis of apoptosis and survival. The kit FITC Annexin V Apoptosis Detection kit (BD Bioscience, San Jose, CA) was used. The staining protocol and all the reagents were supplied with the commercial kit. HUVEC were separated from the culture flasks by accutase (StemPro® Accutase® Cell dissociation reagent, Thermofischer Scientific Waltham, MA). Both cell types were incubated at 37°C for 24h in the presence or absence of the test compounds. Confluent HUVEC and freshly isolated neutrophils were washed, resuspended in binding buffer 1x (1 × 10^6 cells/mL) and stained with annexin V conjugated with FITC and propidium iodide (PI) as described in the manufacturer's instructions. The cells were analyzed in a BD FACSVerse Flow Cytometer (BD Biosciences, San Jose, CA) and differentiated as early apoptosis cells (annexin V^+ and PI^-), late apoptosis cells and/or necrotic cells (annexin V^+ and PI^+), and live cells (annexin V^- and PI^-).

RXRα/PPARγ interaction = target: T1, RXRα/PPARγ interaction (Homo sapiens, UniProt P37231); experiment: Immunoprecipitation of PPARγ followed by Western blot for RXRα in HUVEC; assay type: cell-based; settings: pretreated HUVEC
T1 construct: endogenous in cells; host or cells: HUVEC
T1 sequence (P37231 29-505 limits assumed): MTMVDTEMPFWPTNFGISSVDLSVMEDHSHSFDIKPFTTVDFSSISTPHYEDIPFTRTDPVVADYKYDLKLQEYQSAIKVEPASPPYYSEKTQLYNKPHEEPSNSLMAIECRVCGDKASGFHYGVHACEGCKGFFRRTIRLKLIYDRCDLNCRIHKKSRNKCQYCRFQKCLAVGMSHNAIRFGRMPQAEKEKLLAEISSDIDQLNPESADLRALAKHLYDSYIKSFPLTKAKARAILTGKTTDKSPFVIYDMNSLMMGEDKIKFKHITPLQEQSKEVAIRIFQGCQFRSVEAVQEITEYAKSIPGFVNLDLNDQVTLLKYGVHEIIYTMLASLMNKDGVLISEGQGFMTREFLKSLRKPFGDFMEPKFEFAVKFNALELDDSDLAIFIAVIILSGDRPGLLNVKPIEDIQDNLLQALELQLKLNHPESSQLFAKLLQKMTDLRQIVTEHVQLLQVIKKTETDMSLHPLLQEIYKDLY
T1 sequence (P19793 1-462 partner): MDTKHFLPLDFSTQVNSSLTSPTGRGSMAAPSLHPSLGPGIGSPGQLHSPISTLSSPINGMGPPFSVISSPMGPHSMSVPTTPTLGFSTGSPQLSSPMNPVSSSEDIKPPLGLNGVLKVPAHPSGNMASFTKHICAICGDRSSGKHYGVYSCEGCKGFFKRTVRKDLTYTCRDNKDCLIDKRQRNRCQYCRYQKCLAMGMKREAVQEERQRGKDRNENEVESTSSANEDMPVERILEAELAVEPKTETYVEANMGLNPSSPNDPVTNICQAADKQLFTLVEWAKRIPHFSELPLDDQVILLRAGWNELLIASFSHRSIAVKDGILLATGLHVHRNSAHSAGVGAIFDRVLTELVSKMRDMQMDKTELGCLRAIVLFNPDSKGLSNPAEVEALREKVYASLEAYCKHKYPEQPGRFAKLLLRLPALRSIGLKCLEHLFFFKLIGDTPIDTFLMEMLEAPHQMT
Description: For the immunoprecipitation, the protein extracts were obtained in 50 mM Tris-HCl (pH 8), 150 mM NaCl, 1% Nonidet P-40 and protease (1 mM PMSF, 40 µg/mL aprotinin and 40 µg/mL leupeptin) and phosphatase inhibitors. Then the protein extracts (~200 µg) were incubated with 5 µg of an antibody against PPARγ. Immunocomplexes were precipitated using an anti-rabbit IgG beads (cat# 8800, eBioscience, San Diego, CA) and suspended in a sample buffer with 50 mM dithiotreitol (DTT). Western blot was performed with an antibody against RXRα and the membranes were incubated with the secondary HRP-conjugate Rabbit TrueBlot (eBioscience, San Diego, CA) as secondary antibody. Chemoluminescence signals were developed with ECL (GE Healthcare, Madrid, Spain).

[3] = tested on: mononuclear cell adhesion induced by TNFα; experiment: Mononuclear cell adhesion to TNFα-stimulated HUVEC transfected with control or RXRα, PPARα, PPARγ specific siRNA; assay type: cell-based, human; settings: 20 h

SMILES	cytotoxicity (MTT), with respect to the vehicle [1] [%]	triglyceride levels in plasma ([2]; 10 mg/Kg/d) [mg/dL]	triglyceride levels in plasma ([2]; 30 mg/Kg/d) [mg/dL]	blood levels of free fatty acids ([2]; 30 mg/Kg/d, control 0.67)	triglyceride levels in plasma (in words) [2]	decrease of AST level compared to the ob/ob control group ([2]; plasma, 30 mg/Kg/d) [%]	increase of total cholesterol levels with respect to the control group ([2]; plasma, 30 mg/Kg/d) [%]	ALT level ([2]; plasma)	HDL-c with respect to the control group ([2]; plasma, compound 9 10 and 30 mg/Kg/d, WY-14643 30 mg/Kg/d)	toxicity (HUVEC)	RXRα/PPARγ interaction (RXRα/PPARγ interaction)	inhibitory response on mononuclear cell adhesion after PPARα silencing ([3]; PPARα siRNA HUVEC, polycerasoidol 10 µM, rosiglitazone 1 µM)	inhibitory response on mononuclear cell adhesion in HUVEC deficient in PPARγ ([3]; PPARγ siRNA HUVEC, 10 µM)	inhibitory effect on mononuclear cell adhesion after RXRα silencing ([3]; RXRα specific siRNA HUVEC, 10 µM)	TNFα-induced adhesion of mononuclear cells ([3]; control siRNA transfected HUVEC, polycerasoidol 10 µM, rosiglitazone 1 µM)
CCOC(=O)CCC(C)=CCCC1(C)CCc2cc(OCc3ccc(F)cc3)ccc2O1 (stereo not drawn) [Compound 9]	12	122	101	0.25	decrease of triglyceride levels in plasma, although not in a significant manner	28	50	reduced	significantly increased	absence of toxicity					
C/C(=C\CCC1(C)CCc2cc(O)cc(C)c2O1)CC/C=C(\C)C(=O)O (stereo not drawn) [Polycerasoidol, 1, polycerasoidol]											increased RXRα/PPARγ interaction	not affected	annulled	completely suppressed	inhibited
